Source: paper PMC9250890 (Cell Reports, 2022)
Entries after “also recorded” stand apart in the source; their conditions may differ. Where a name gives a salt, the structure may show the parent alone. Read-outs that look alike come from different tables or passages of the source.

How the values were obtained:
human ANO6 = biological target: T1, human ANO6 (Homo sapiens, UniProt Q4KMQ2); test: YFP fluorescence quenching-based anion channel assay, FRT-ANO6 cells; assay type: cell-based
T1 sequence (Q4KMQ2 1-931 isoform Q4KMQ2-2): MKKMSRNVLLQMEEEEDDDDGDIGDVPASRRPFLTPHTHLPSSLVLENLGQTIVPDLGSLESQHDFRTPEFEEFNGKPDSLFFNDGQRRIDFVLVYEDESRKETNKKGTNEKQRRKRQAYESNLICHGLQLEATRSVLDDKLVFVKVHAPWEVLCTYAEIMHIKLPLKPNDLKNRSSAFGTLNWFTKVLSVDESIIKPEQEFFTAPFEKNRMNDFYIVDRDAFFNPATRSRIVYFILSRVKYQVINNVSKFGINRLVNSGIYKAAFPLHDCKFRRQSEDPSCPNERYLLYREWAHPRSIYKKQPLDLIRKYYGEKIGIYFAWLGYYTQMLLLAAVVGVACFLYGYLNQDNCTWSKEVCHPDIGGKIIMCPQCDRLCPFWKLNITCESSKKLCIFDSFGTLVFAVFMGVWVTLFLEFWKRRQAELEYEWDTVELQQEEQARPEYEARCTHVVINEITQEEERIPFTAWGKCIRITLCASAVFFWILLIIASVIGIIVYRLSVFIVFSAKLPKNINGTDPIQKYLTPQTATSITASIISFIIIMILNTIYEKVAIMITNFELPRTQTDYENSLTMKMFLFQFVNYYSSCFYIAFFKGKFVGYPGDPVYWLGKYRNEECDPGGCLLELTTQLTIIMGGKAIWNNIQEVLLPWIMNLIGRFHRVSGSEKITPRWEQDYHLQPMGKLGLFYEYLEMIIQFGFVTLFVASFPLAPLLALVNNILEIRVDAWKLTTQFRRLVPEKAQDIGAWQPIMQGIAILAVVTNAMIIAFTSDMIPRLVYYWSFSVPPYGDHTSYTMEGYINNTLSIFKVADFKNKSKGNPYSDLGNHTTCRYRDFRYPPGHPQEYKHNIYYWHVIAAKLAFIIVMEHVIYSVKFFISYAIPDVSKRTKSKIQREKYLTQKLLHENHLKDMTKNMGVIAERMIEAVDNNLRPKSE

human ANO2 = biological target: T2, human ANO2 (Homo sapiens, UniProt Q9NQ90); test: YFP quenching anion channel assay, FRT-ANO2 cells; assay type: cell-based
T2 sequence (Q9NQ90 1-998): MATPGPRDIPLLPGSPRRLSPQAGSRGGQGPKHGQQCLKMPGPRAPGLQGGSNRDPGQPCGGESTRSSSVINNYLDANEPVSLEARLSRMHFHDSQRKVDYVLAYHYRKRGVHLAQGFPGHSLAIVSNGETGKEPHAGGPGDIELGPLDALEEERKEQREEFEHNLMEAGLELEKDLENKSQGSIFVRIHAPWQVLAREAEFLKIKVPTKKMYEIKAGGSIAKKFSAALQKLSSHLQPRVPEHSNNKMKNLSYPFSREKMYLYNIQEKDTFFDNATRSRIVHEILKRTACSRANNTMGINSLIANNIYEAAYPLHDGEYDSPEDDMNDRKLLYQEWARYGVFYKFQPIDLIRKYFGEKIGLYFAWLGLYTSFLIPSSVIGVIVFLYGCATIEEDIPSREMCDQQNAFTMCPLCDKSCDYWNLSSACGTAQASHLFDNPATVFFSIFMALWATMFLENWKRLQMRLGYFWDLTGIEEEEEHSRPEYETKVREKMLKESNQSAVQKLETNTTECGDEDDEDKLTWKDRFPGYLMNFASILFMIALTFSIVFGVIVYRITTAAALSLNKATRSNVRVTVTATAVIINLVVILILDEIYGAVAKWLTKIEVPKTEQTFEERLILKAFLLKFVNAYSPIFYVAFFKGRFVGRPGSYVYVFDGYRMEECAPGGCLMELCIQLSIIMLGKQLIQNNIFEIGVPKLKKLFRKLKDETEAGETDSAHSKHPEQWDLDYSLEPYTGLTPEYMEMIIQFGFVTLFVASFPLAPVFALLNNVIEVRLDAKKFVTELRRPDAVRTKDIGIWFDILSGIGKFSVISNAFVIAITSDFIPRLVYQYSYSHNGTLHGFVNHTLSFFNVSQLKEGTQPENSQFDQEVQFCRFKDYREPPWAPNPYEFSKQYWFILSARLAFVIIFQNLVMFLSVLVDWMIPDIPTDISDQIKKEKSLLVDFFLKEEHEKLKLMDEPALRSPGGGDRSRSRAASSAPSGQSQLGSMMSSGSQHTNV

ANO6 (TMEM16F) = biological target: T3, ANO6 (TMEM16F) (Homo sapiens, UniProt Q4KMQ2); test: Whole-cell patch clamp of ANO6 currents in HEK 293T-ANO6 cells; assay type: cell-based
T3 sequence (Q4KMQ2 1-931 isoform Q4KMQ2-2): T1 sequence (Q4KMQ2 1-931 isoform Q4KMQ2-2)

[1] = biological target: T4, ANO6 phospholipid scramblase (Homo sapiens, UniProt Q4KMQ2); test: Ionomycin-induced PS externalization; assay type: cell-based
T4 sequence (Q4KMQ2 1-931 isoform Q4KMQ2-2): T1 sequence (Q4KMQ2 1-931 isoform Q4KMQ2-2)

cytosolic Ca2+ signals [2] = test: Ionomycin-induced cytosolic Ca2+ signals; assay type: cell-based
human WT-CFTR = test: CFTR short-circuit current in FRT-CFTR cells; assay type: cell-based; conditions: up to a 30-μM concentration
HeLa-ACE2 cells [3] = test: SARS2-PsV-induced PS externalization in HeLa-ACE2 cells; assay type: cell-based; conditions: for SARS2-PsV-induced PS externalization: 1 h; for PS externalization evoked by trypsin-pretreated SARS2-PsV: trypsin 10 μg/mL, 10 min, 37°C
HeLa-ACE2 cells [4] = test: SARS2-PsV-induced multinucleated cell formation; assay type: cell-based; conditions: SARS2-PsV 30 min
[5] = test system: CHO-Spike / HEK 293T-ACE2-TMPRSS2 cells; assay type: cell-based; conditions: 10 μM
[6] = test system: HEK 293T-ACE2-TMPRSS2 cells; test: SARS2-PsV-induced cytosolic Ca2+ signals; assay type: cell-based; conditions: pretreatment: BAPTA-AM 3 μM, camostat 10 μM, A6-001 10 μM
[7] = test system: HEK 293T-ACE2-TMPRSS2 cells; assay type: cell-based; conditions: 10 μM, ATP 100 μM
Calu-3 cells [8] = test: ATP-induced Ca2+ response in Calu-3 cells; assay type: cell-based, human; conditions: 10 μM, ATP 100 μM
[9] = test system: SARS-CoV-2 Spike pseudotyped virus (SARS2-PsV); test: microbe, parasite or virus in culture; assay type: cell-based; conditions: for single-round infection of SARS2-PsV: BAPTA-AM 10 μM
SARS-CoV-2 [10] = test: Viral replication of authentic SARS-CoV-2 in Calu-3 cells; assay type: cell-based
SARS-CoV-2 [11] = test: Viral replication of authentic SARS-CoV-2 in Vero cells; assay type: cell-based; conditions: for IC50: read-out: IC50, viral replication, Vero, supernatant
SARS-CoV-2 [12] = test: Viral replication of SARS-CoV-2 in primary human nasal epithelial; assay type: cell-based; conditions: 10 μM basolateral, 72 h, HNE
[13] = test system: recombinant eGFP adenovirus (Ad-eGFP); test: Adenovirus; assay type: cell-based; conditions: 10 μM; 1 MOI; 48 h; HEK 293T
Calu-3 cells [14] = test: Cell viability MTS assay, Calu-3 cells; assay type: cell-based, human; conditions: Calu-3 and Vero cells
SARS-CoV-2 [15] = test: Cellular viral RNAs by qPCR at 4 h post-infection in Vero cells; assay type: cell-based; conditions: 0.01 MOI
human ANO1 = test: YFP quenching anion channel assay, FRT-ANO1 cells
hANO6 = conditions: 10 μM
HeLa-ACE2 cells [16] = test: Authentic SARS-CoV-2-induced PS externalization in HeLa-ACE2 cells; assay type: cell-based; conditions: 10 μM; 1 h pretreatment; 10 MOI
[17] = test system: PS scrambling induced by ionomycin; test: Ionomycin-induced PS scrambling, camostat control; assay type: cell-based; conditions: camostat 100 μM, 1 h prior; ionomycin 10 μM, 10 min
SARS-CoV-2 [18] = conditions: HeLa-ACE2 cells; ref Shang et al., 2020; cited from earlier work
[19] = test system: endogenous Cl- currents in HEK 293 cells; conditions: ref Braga et al., 2021; cited from earlier work
cytosolic Ca2+ signals [20] = conditions: ref Braga et al., 2021; cited from earlier work
[21] = 10 μM during infection and 4 h post-infection
[22] = 10 μM during the infection period alone

## O=C(NCc1ccc(F)cc1)c1cccc(Nc2ccc(-c3ccccc3)nn2)c1 [A6-001, N-(4-fluorobenzyl)-3-((6-phenylpyridazin-3-yl)amino)benzamide]
Human ANO6; half-maximal inhibitory concentration [IC50], ANO6 ion channel, FRT-ANO6 cells, 10 μM ionomycin
  IC50: 90 nM
Human ANO2
  ANO6 selectivity against ANO2: 90 fold
ANO6 (TMEM16F)
  IC50: 70 nM
[1]
  IC50: 910 nM
[1]; 10 μM, FRT-ANO6 cells
  ionomycin-induced PS externalization: most effective
[1]; larger
  scramblase IC50 relative to that for ANO6 ion channel activity: approximately 10 fold
Cytosolic Ca2+ signals [2]; up to 30 μM
  ionomycin-induced cytosolic Ca2+ signals: did not affect
Human WT-CFTR
  CFTR currents: did not affect
HeLa-ACE2 cells [3]; 10 μM
  SARS2-PsV-induced PS externalization: strongly inhibited; also recorded: inhibit
HeLa-ACE2 cells [3]
  PS externalization evoked by trypsin-pretreated SARS2-PsV: inhibits
HeLa-ACE2 cells [4]
  multinucleated cell formation: inhibits; also recorded: significantly reduced
[5]; 8-h time-lapse
  membrane-fusion events: abolishes; also recorded: profoundly reduced
[5]; Video S3
  initial lipid-mixing event and cell-cell fusion: eliminated
[5]; initial 1 h
  cell-cell adhesion: does not affect; also recorded: not affecting
[6]
  SARS2-PsV-induced cytosolic Ca2+ signals: did not affect
[7]
  purinergic agonist (ATP)-induced Ca2+ response: did not alter
Calu-3 cells [8]
  purinergic agonist (ATP)-induced Ca2+ response: did not alter
[9]
  cellular viral reduction, pseudotyped virus: 78%
  single-round infection of SARS2-PsV: dose dependently inhibited
[9]; Severe acute respiratory syndrome coronavirus 2, read-out: IC50, single-round infection
  IC50: 420 nM
SARS-CoV-2 [10]; 10 μM, 48 h, […], Calu-3
  viral reduction, qPCR: 1/50
  ΔCt: −13.5
SARS-CoV-2 [10]; Severe acute respiratory syndrome coronavirus 2, Calu-3, 48 h, read-out: IC50, viral replication
  IC50: 970 nM
SARS-CoV-2 [11]; 10 μM, 48 h, Vero
  viral reduction, plaque assay: 1/500
  viral reduction, qPCR: 1/150
  ΔCt: −11.8
SARS-CoV-2 [11]; Severe acute respiratory syndrome coronavirus 2, Vero, 48 h
  IC50: 930 nM
SARS-CoV-2 [11]; Vero, 48 h, light microscopy
  virus-induced cytolysis: dose dependently reduced
SARS-CoV-2 [11]
  IC50: 740 nM
SARS-CoV-2 [12]
  average reduction in viral replications, plaque assay: 94%
[13]
  replications of the non-enveloped adenovirus: did not affect
Calu-3 cells [14]
  safety margin: > 100
SARS-CoV-2 [15]; [21]
  reduction in cellular viral RNAs: 98%
  ΔΔCt, cellular viral RNA: 5.58
SARS-CoV-2 [15]; [22]
  cellular viral reduction, authentic virus: 86%
  ΔΔCt, cellular viral RNA: 2.84
Human ANO1
  ANO6 selectivity against ANO1: 460 fold
hANO6; Jurkat-ANO6
  ionomycin-induced increase in Lact-C2-positive, PI-negative cell population (Q3): reversed
hANO6; Jurkat
  ionomycin-induced increase in Lact-C2-positive, PI-negative cell population (Q3): reversed

## CCOC(=O)c1c(NCc2ccc(SC)cc2)c2cccc(C)c2[nH]c1=O [A6-004, ethyl 8-methyl-4-((4-(methylthio)benzyl)amino)-2-oxo-1,2-dihydroquinoline-3-carboxylate]
Human ANO6; ANO1, ANO2 and ANO6
  IC50 on all examined ANOs: micromolar ranges
Cytosolic Ca2+ signals [2]; at 30 μM
  ionomycin-induced cytosolic Ca2+ signals: partially reduced
HeLa-ACE2 cells [3]; 10 μM
  SARS2-PsV-induced PS externalization: strongly inhibited; also recorded: inhibit

## CC(=O)OCOC(=O)CN(CC(=O)OCOC(C)=O)c1ccccc1OCCOc1ccccc1N(CC(=O)OCOC(C)=O)CC(=O)OCOC(C)=O [BAPTA-AM, reference compound]
HeLa-ACE2 cells [3]; 10 μM
  SARS2-PsV-induced PS externalization: nullified; also recorded: inhibits
HeLa-ACE2 cells [16]
  authentic SARS-CoV-2 virus-evoked PS scrambling: suppressed
[6]
  SARS2-PsV-induced cytosolic Ca2+ signals: nullified
[9]
  single-round infection of SARS2-PsV: significantly reduced

## CN(C)C(=O)COC(=O)Cc1ccc(OC(=O)c2ccc(NC(=N)N)cc2)cc1 [camostat, camostat mesylate, reference compound]
HeLa-ACE2 cells [3]; 100 μM
  SARS2-PsV-induced PS externalization: reduced; also recorded: inhibits
HeLa-ACE2 cells [3]
  PS externalization evoked by trypsin-pretreated SARS2-PsV: but not by trypsinized SARS2-PsV
[6]
  SARS2-PsV-induced cytosolic Ca2+ signals: significantly reduced
[17]
  PS scrambling induced by ionomycin: did not affect
SARS-CoV-2 [18]
  SARS-CoV-2 cell entry: inhibits

## CC(C)/N=c1\cc2n(-c3ccc(Cl)cc3)c3ccccc3nc-2cc1Nc1ccc(Cl)cc1 [clofazimine]
[19]
  endogenous Cl- currents / Cl- channel activities: did not affect

## O=C(Nc1ccc([N+](=O)[O-])cc1Cl)c1cc(Cl)ccc1O [niclosamide]
[19]
  endogenous Cl- currents / Cl- channel activities: partial inhibitory effect
Cytosolic Ca2+ signals [20]
  cytosolic Ca2+ signals: reduced

## CC[C@@H](C(=O)[C@@H](C)[C@@H](O)[C@H](C)[C@@H]1O[C@@H]([C@@H](CC)C(=O)O)CC[C@@H]1C)[C@H]1O[C@]2(C=C[C@@H](O)[C@]3(CC[C@@](C)([C@H]4CC[C@](O)(CC)[C@H](C)O4)O3)O2)[C@H](C)C[C@@H]1C [salinomycin]
[19]
  endogenous Cl- currents / Cl- channel activities: did not affect
